Biological target: Na(+)/dicarboxylate cotransporter 3 (Homo sapiens) (UniProt Q8WWT9)
Experiment: NaDC3 cotransporter activation by substrates – membrane potential dye, HEK-293 overexpressing cells, dose response (AID 1794820)
Conditions: HEK-293 SLC13A3 OE, FLIPR membrane potential dye

Chain of Na(+)/dicarboxylate cotransporter 3 (Homo sapiens) (Q8WWT9 whole entry, looked up): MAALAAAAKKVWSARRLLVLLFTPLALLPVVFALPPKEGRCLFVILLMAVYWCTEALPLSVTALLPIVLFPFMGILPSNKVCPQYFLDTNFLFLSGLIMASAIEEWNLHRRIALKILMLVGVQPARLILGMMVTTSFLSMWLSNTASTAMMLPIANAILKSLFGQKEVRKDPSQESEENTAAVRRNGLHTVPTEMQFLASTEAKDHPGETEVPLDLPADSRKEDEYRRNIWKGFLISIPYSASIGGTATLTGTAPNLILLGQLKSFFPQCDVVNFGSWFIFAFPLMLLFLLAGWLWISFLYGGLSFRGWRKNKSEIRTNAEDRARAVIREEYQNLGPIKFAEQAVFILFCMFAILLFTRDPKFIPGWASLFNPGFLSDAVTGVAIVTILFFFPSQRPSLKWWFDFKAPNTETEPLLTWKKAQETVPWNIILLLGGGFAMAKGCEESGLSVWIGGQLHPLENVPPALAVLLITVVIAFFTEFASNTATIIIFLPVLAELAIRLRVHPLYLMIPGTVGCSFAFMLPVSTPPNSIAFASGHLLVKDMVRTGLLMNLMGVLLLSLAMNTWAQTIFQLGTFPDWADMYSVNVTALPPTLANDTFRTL

Row | EC50 | Compound
1 | 54 µM | O=C(O)CCC(=O)C(=O)O
2 | 107 µM | O=C(O)CCC(=O)O

Source: PubChem BioAssay AID1794820
